{"source": "patent US20250276996A1", "about": "“CATIONICALLY-ENFRAMED HIGH DENSITY AROMATIC PEPTIDES” (Research Foundation of the City University of New York, priority 2022, published 2025)", "key": {"[1]": {"assay": "NAO fluorescence with POPC liposomes", "type": "binding", "procedure": "The resulting multilamellar vesicles were vortexed lightly and sized into small unilamellar vesicles by heated bath sonication for 25 min. All liposomes were cooled to ambient temperature before use.\nInteraction of biotin-HDAP2 Peptide with Phospholipids: The ability of biotin-HDAP2 to displace nonyl acridine orange (NAO), a fluoroprobe known to selectively bind CL was determined. Interaction of biotin-HDAP2 with phospholipids was examined by measuring changes in the fluorescence spectra of 3 μM NAO (Molecular Devices, Sunnyvale, CA)) with excitation at 480 nm. CL and POPC in liposomes were use at 30 μM. Dose response curves were done with 30 μM CL, biotin-HDAP2 (0, 2.5, 5, 10, 20, and 30 μM), and 3 μM of NAO (ex/em at 480 nm/520 nm). All experiments were done in 10 mM Hepes (pH 7.4) to optimize electrostatic interactions of peptides with phospholipids."}, "MDBK cells [2]": {"system": "MDBK cells", "assay": "Cell survival in serum-free media (AlamarBlue)", "type": "cell-based, bovine", "procedure": "Serum starvation experiments: Biotin-HDAP2's ability to improve cell viability and function following serum starvation was assessed. For all experiments, MDBK cells were seeded in 35 mm cell culture dishes (5×10^4 cells) in DMEM medium with 10% FBS (Fetal Bovine Serum) for 24 hrs and then incubated in serum-free medium with or without biotin-HDAP2 (1 μM) for 5 days to induce cell death. For quantitative measurements, wells were washed to remove dead cells, and then stained with AlamarBlue for 60 min. Quantitative analysis of dye conversion was measured using a fluorescent plate reader (550 ex/580 em) and cell viability was expressed as folds change (increase or decrease) over scrum-starved untreated cells.\nEffects of peptides on cell survival in serum-free media: Cell survival in serum starvation conditions was studied in the presence and absence of biotin-HDAP2 using MDBK cells. Cells were plated at a density of 1-2×10^5 cells/well in 96 well plates in DMEM/10% FBS media. The following day, cells were washed and the medium replaced with DMEM serum-free media in the presence or absence of different concentrations of biotin-HDAP2 and incubated for 5 days. Cell viability was assessed using the Resaruzin (Alamar blue) indicator dye. Quantitative analysis of dye conversion was measured using a fluorescent plate reader (ex/em=550/580 nm) and viability was expressed as fold increase over of untreated cells."}, "MDBK cells [3]": {"system": "MDBK cells", "assay": "Cellular oxidative stress in serum-starved cells (CM-H2DCFDA)", "type": "cell-based, bovine", "conditions": "1 μM", "procedure": "MDBK cells incubated in serum free media for 5-7 days in the presence or absence of 1 μM of biotin-HDAP2. At the end of the incubation period, 100 nM CM-H2DCFDA (oxidative stress marker) was added to the cells and incubated for 30 minutes. Then, media was removed and cells were fixed in 4% PFA. Cells were then visualized using a fluorescent microscope (Nikon Eclipse-ci-SRS). Experiments were conducted 5 times in triplicate for each experimental condition.\nTo measure the effects of biotin-HDAP2 on the mitochondrial potential and cellular oxidative stress, cells were cultured in DMEM/F12 without fetal bovine serum (FSB) in the presence or absence of biotin-HDAP2 (1 μM). […]\nUnless otherwise noted, data for all tissue culture experiments were collected from three independent trials, with each experiment done in triplicate. […] Photooxidation of the indicator dyes were minimized by using single exposures to the fluorescence for each field imaged. Fluorescence intensity was analyzed using ImageJ (NIH), and MTR and CM-H2DCFDA fluorescence were normalized to Hoechst fluorescence to account for differences in cell number in each field. […] All data are expressed as means±SEM."}, "[4]": {"system": "retinal ganglion cells (RGCs)", "assay": "Retinal ganglion cell survival in retinal explants", "conditions": "Brn3a labeling", "description": "FIG. 8 illustrates retinal explants labeled with Brn3a (green) to label retinal ganglion cells (RGCs), ToPro3 to label all cell nuclei (red) and ChAT to label displaced amacrine cells (blue)."}, "ARPE-19 cells": {"system": "ARPE-19 cells", "assay": "Restoration of mitochondrial membrane potential after 3 days of serum starvation (TMRM)", "type": "cell-based", "conditions": "2 hours incubation after 3 days of serum starvation", "description": "Serum starvation for 3 days reduced mitochondrial membrane potential in serum-free controls (SFC), compared to regular cells grown on serum (FBS). […] Error bars represent SEM (n=5) ***P<0.001."}, "HK-2 cells": {"system": "HK-2 cells", "assay": "PCNA expression in serum-starved cells", "type": "cell-based", "conditions": "serum starved for 3 days", "description": "FIG. 18B are representative images of HK-2 cells serum starved for 3 days in the presence or absence of biotin-HDAP2 (SEQ ID NO: 1), HDAP4 (SEQ ID NO: 13), and biotin-HDAP6 (SEQ ID NO: 10) and then tested for the expression of Proliferating Cell Nuclear Antigen (PCNA) (bottom row), a positive marker for cell proliferation. The Hoechst 33342 probe (Hc) was used to label the nucleus to determine cellular localization (top row)."}, "MDBK cells [5]": {"system": "MDBK cells", "conditions": "dilutions up 100 μM"}, "mice": {"system": "mice", "conditions": "3 mg/kg daily for 14 days or biweekly for two months"}}, "note": "Several values for one entry are separate records, joined by “and”; a condition that tells them apart may be missing. Equal entries are not always repeated. Non-standard residues stand in square brackets, D forms with d. Residues, ends and D or L forms follow the SMILES beside them. *: point of attachment. Biotin = O=C1N[C@H]2[C@H](CS[C@H]2CCCCC(=O)*)N1", "data": [{"smiles": "N=C(N)NCCC[C@@H](NC(=O)[C@H](Cc1ccccc1)NC(=O)[C@H](Cc1ccccc1)NC(=O)[C@@H](CCCNC(=N)N)NC(=O)CCCC[C@@H]1SC[C@@H]2NC(=O)N[C@@H]21)C(N)=O", "note": "[biotin-HDAP2, Biotin-dArg-Phe-Phe-dArg-NH2] (Biotin-[dR]FF[dR]-NH2)", "values": [{"measurement": "effect on interaction between NAO and POPC liposomes", "setting": "[1]", "value": "did not interfere with the interaction between NAO and the POPC liposomes"}, {"measurement": "AlamarBlue fluorescence / protection during serum starvation", "setting": "MDBK cells [2]; 1 μM, 5 days serum starvation", "value": "increased AlamarBlue fluorescence"}, {"measurement": "increase in cell survival compared to untreated controls", "setting": "MDBK cells [2]; 1 μM, serum-free 5 days, AlamarBlue", "value": 50, "unit": "%"}, {"measurement": "EC50", "setting": "MDBK cells [2]; serum-free, 5 days, AlamarBlue, read-out: EC50, cell survival in serum-free conditions", "value": "~0.1 µM and 0.1 µM"}, {"measurement": "oxidative stress in starved cells", "setting": "MDBK cells [3]; serum free 5-7 days, 100 nM CM-H2DCFDA", "value": "prevented oxidative stress in starved cells"}, {"measurement": "reduction in CM-H2DCFDA fluorescence compared to control", "setting": "MDBK cells [3]; serum-free", "value": "> 80% and 80%"}, {"measurement": "survival of retinal ganglion cells in retinal explants", "setting": "[4]", "value": "promoted survival of retinal ganglion cells in retinal explants"}, {"measurement": "restoration of mitochondrial membrane potential", "setting": "ARPE-19 cells", "value": "restored mitochondrial membrane potential within 2 hours"}, {"measurement": "expression of PCNA and cell proliferation", "setting": "HK-2 cells", "value": "increase proliferation expression of PCNA and cell proliferation during serum starvation"}, {"measurement": "cellular toxicity", "setting": "MDBK cells [5]", "value": "No toxicity in MDBK cell growth was observed"}, {"measurement": "toxicity in mice", "setting": "mice", "value": "no adverse effects"}, {"measurement": "water solubility", "setting": "Water solubility", "value": "water soluble"}]}]}
